Results reported in ChEMBL document CHEMBL4311982, “Discovery of novel, potent, isosteviol-based antithrombotic agents” (Eur J Med Chem, 2019).
pKi: −log10 of the molar value.

Key:
[1] = Cmax in Wistar rat at 22 umol/kg, po measured upto 24 hrs by LC-MS/MS analysis; assay type: ADME, organism-based; set-up: dose 22 umol/kg, route oral; conditions: in vivo
Coagulation factor X = Coagulation factor X (Homo sapiens, UniProt P00742); assay: Inhibition of human activated Factor X using S-2765 as substrate incubated for 15 mins followed by substrate addition and measured after 1 hr by chromogenic assay
Coagulation factor XI = Coagulation factor XI (Homo sapiens, UniProt P03951); assay: Inhibition of human activated Factor XI using S-2366 as substrate incubated for 15 mins followed by substrate addition and measured after 1 hr by chromogenic assay
Coagulation factor VII = molecular target: T1, Coagulation factor VII (Homo sapiens, UniProt P08709); assay: Inhibition of human activated Factor VII using S-2288 as substrate incubated for 15 mins followed by substrate addition and measured after 1 hr by chromogenic assay
T1 sequence (P08709 whole entry): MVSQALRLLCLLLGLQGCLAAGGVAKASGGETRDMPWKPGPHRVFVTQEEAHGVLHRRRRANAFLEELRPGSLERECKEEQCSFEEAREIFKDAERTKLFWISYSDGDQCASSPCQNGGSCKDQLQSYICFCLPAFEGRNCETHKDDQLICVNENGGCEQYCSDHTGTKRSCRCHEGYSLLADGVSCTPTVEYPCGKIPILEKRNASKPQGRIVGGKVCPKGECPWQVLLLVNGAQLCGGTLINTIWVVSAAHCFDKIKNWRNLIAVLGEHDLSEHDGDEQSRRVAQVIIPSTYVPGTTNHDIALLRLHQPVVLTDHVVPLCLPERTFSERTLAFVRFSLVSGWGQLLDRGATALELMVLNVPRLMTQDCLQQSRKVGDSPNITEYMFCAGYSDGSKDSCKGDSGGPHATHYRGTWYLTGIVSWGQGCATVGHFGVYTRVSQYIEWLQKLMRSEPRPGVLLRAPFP

Coagulation factor XII = molecular target: T2, Coagulation factor XII (Homo sapiens, UniProt P00748); assay: Inhibition of human activated Factor XII using spectrozyme F XIIa as substrate incubated for 15 mins followed by substrate addition and measured after 1 hr by chromogenic assay
T2 sequence (P00748 whole entry): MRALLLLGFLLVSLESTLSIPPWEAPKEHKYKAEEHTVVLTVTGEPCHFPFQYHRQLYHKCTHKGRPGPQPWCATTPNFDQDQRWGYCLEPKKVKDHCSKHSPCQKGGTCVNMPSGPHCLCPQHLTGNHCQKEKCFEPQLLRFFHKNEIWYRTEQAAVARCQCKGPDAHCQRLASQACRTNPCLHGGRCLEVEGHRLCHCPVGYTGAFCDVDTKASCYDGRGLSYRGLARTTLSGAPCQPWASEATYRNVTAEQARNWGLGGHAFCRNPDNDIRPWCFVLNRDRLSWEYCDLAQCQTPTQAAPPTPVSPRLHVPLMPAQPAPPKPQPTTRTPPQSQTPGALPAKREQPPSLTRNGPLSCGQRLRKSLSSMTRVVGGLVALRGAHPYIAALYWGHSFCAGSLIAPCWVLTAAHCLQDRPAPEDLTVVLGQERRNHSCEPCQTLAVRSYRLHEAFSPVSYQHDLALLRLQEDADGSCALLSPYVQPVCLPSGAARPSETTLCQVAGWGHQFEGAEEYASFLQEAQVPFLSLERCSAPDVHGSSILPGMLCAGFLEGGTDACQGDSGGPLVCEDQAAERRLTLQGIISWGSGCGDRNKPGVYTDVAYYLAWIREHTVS

Coagulation factor IX = Coagulation factor IX (Homo sapiens, UniProt P00740); assay: Inhibition of human activated Factor IX using spectrozyme F IXa as substrate incubated for 15 mins followed by substrate addition and measured after 1 hr by chromogenic assay
Trypsin = Trypsin (Homo sapiens, UniProt P07477+P07478+P35030); assay: Inhibition of human trypsin using S-2222 as substrate incubated for 15 mins followed by substrate addition and measured after 1 hr by chromogenic assay; assay type: protein assay
[2] = molecular target: Tissue-type plasminogen activator (Homo sapiens, UniProt P00750); assay: Inhibition of human tPA using […] tPA substrate incubated for 15 mins followed by substrate addition and measured after 1 hr by chromogenic assay
[3] = molecular target: Urokinase-type plasminogen activator (Homo sapiens, UniProt P00749); assay: Inhibition of human uPA using […] uPA substrate incubated for 15 mins followed by substrate addition and measured after 1 hr by chromogenic assay
[4] = Half life in Wistar rat at 22 umol/kg, po measured upto 24 hrs by LC-MS/MS analysis; assay type: ADME, organism-based; conditions: in vivo
[5] = AUC (0 to infinity) in Wistar rat at 22 umol/kg, po measured upto 24 hrs by LC-MS/MS analysis; assay type: ADME, organism-based; set-up: dose 22 umol/kg, time infinity, route oral; conditions: in vivo
[6] = MRT in Wistar rat at 22 umol/kg, po measured upto 24 hrs by LC-MS/MS analysis; assay type: ADME, organism-based; conditions: in vivo
[7] = Clearance in Wistar rat at 22 umol/kg, po measured upto 24 hrs by LC-MS/MS analysis; assay type: ADME, organism-based; conditions: in vivo
[8] = Volume of distribution in Wistar rat at 22 umol/kg, po measured upto 24 hrs by LC-MS/MS analysis; assay type: ADME, organism-based; conditions: in vivo
[9] = Oral bioavailability in Wistar rat at 22 umol/kg measured upto 24 hrs by LC-MS/MS analysis; assay type: ADME, organism-based; conditions: in vivo
[10] = Half life in Wistar rat at 6.6 umol/kg, iv measured upto 24 hrs by LC-MS/MS analysis; assay type: ADME, organism-based; conditions: in vivo
[11] = AUC (0 to infinity) in Wistar rat at 6.6 umol/kg, iv measured upto 24 hrs by LC-MS/MS analysis; assay type: ADME, organism-based; set-up: dose 6.6 umol/kg, time infinity, route intravenous; conditions: in vivo
[12] = MRT in Wistar rat at 6.6 umol/kg, iv measured upto 24 hrs by LC-MS/MS analysis; assay type: ADME, organism-based; conditions: in vivo
[13] = Clearance in Wistar rat at 6.6 umol/kg, iv measured upto 24 hrs by LC-MS/MS analysis; assay type: ADME, organism-based; conditions: in vivo
[14] = Volume of distribution in Wistar rat at 6.6 umol/kg, iv measured upto 24 hrs by LC-MS/MS analysis; assay type: ADME, organism-based; conditions: in vivo
Rattus norvegicus [15] = organism: Rattus norvegicus; further: test concentration or dose not given here
Rattus norvegicus [16] = organism: Rattus norvegicus; remark: listed apart in the source; further: test concentration or dose not given here
Rattus norvegicus [17] = organism: Rattus norvegicus; remark: listed apart in the source; further: test concentration or dose not given here
Plasma kallikrein = Plasma kallikrein (Homo sapiens, UniProt P03952); assay: Inhibition of human kallikrein using S-2302 as substrate incubated for 15 mins followed by substrate addition and measured after 1 hr by chromogenic assay
[18] = molecular target: Chymotrypsin (Rattus norvegicus); assay: Inhibition of rat chymotrypsin using S-2586 as substrate incubated for 15 mins followed by substrate addition and measured after 1 hr by chromogenic assay

Sequence of Coagulation factor XI (P03951 19-387 limits assumed): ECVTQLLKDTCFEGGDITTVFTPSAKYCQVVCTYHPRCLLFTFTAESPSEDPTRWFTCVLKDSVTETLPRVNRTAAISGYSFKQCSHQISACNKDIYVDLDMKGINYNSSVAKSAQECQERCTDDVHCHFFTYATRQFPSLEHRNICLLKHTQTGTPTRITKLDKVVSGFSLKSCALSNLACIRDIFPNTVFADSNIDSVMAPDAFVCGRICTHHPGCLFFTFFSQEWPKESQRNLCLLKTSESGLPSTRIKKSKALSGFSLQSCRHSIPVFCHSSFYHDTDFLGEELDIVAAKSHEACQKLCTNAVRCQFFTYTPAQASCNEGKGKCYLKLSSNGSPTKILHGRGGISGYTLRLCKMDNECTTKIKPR
Sequence of Coagulation factor XI (P03951 388-625 limits assumed): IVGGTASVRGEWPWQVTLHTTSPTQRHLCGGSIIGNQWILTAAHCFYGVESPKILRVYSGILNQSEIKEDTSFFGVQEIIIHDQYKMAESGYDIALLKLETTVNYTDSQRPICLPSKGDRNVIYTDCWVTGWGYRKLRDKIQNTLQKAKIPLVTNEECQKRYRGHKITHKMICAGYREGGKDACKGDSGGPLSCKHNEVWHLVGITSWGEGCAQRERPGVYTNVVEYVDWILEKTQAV
Sequence of Coagulation factor X (P00742 41-179 limits assumed): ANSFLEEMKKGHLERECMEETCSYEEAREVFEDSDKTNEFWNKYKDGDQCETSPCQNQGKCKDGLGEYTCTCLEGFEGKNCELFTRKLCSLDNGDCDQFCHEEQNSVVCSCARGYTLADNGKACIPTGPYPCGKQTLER
Sequence of Coagulation factor X (P00742 235-488 limits assumed): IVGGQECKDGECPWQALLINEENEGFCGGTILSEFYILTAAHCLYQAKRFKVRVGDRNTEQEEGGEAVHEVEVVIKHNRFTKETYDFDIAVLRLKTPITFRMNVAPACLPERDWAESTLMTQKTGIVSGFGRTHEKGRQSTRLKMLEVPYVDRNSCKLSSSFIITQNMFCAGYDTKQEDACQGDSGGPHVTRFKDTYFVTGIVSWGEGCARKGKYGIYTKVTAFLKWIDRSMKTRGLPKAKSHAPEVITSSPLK
Sequence of Plasma kallikrein (P03952 20-390 limits assumed): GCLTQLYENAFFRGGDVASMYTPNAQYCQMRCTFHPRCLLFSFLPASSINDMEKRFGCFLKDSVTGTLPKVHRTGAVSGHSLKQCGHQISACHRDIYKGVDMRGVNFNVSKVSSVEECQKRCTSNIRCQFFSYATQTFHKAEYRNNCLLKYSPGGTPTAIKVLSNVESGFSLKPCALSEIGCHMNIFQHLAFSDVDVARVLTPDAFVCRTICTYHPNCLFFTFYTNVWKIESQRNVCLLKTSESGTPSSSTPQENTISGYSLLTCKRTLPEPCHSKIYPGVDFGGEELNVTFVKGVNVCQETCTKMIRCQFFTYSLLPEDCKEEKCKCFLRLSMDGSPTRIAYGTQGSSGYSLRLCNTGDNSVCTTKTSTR
Sequence of Plasma kallikrein (P03952 391-638 limits assumed): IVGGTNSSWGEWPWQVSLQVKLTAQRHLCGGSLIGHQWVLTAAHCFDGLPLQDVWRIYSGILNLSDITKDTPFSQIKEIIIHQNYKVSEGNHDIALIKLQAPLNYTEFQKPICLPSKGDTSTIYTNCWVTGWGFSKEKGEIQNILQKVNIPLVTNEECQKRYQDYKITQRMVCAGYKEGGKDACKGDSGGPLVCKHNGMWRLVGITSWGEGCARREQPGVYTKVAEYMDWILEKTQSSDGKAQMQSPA
Sequence of Coagulation factor IX (P00740 47-191 limits assumed): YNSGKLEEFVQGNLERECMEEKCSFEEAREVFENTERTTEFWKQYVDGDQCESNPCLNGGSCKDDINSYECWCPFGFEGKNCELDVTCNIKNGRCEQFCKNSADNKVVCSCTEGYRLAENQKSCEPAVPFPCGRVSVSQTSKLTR
Sequence of Coagulation factor IX (P00740 227-461 limits assumed): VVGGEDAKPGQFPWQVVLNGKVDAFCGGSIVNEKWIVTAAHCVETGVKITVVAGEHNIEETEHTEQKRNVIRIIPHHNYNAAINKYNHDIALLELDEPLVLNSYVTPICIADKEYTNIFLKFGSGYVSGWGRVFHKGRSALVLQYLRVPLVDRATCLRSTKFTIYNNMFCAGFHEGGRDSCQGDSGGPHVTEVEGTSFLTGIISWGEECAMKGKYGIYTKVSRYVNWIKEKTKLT
Sequence of Tissue-type plasminogen activator (P00750 whole entry): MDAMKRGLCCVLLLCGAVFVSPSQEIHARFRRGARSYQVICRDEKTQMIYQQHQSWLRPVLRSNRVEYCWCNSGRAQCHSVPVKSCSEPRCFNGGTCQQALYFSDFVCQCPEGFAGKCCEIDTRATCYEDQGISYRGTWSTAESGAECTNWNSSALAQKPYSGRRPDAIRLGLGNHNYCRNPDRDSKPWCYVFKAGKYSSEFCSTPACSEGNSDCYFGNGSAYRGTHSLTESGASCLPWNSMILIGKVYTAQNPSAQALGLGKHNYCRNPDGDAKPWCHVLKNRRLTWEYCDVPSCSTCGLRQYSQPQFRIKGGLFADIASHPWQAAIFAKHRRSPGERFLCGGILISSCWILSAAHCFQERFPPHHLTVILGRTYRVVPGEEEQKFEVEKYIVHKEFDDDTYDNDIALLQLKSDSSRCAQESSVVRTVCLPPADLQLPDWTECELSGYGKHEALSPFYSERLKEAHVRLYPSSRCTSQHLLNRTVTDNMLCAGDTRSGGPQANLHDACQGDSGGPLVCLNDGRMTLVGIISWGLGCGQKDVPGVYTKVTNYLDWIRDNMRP

| Structure (SMILES) | Cmax [1] | pKi (Coagulation factor X) | pKi (Coagulation factor XI) | pKi (Coagulation factor VII) | pKi (Coagulation factor XII) | pKi (Coagulation factor IX) | Ki (Trypsin) | pKi [2] | pKi [3] | half-life [4] | AUC(0-inf) [5] | MRT [6] | CL/F [7] | Vd [8] | bioavailability [9] | half-life [10] | AUC(0-inf) [11] | MRT [12] | clearance [13] | Vd [14] | further results |
| --- | --- | --- | --- | --- | --- | --- | --- | --- | --- | --- | --- | --- | --- | --- | --- | --- | --- | --- | --- | --- | --- |
| CCOC(=O)[C@]1(C)CCC[C@@]2(C)[C@@H]3CC[C@@]4(C)C[C@]3(CC[C@@H]21)C/C4=N\OCc1ccsc1 | 1250 ng/mL | 7.82 | 5.77 | 4.94 | 5.03 | 4.71 | 2.13 µM | 5.45 | 5.35 | 3.9 h | 5530 ng·h/mL | 4.1 h | 30 mL/min | 10.2 L | 48.6% | 3.2 h | 3410 ng·h/mL | 4.6 h | 15 mL/min | 4 L | PT (Rattus norvegicus [15]): 19.1 s; APTT (Rattus norvegicus [16]): 21.3 s; TT (Rattus norvegicus [17]): 25.5 min; pKi (Plasma kallikrein): 5.66; Ki [18]: 16.262 µM |
| CCOC(=O)[C@]1(C)CCC[C@@]2(C)[C@@H]3CC[C@@]4(C)C[C@]3(CC[C@@H]21)C/C4=N\OCC1(C)COC1 | 728 ng/mL | 7.55 | 5.71 | 5.10 | 5.12 | 5.32 | 0.331 µM | 5.55 | 5.69 | 4.2 h | 4810 ng·h/mL | 5.6 h | 35 mL/min | 12.5 L | 42.7% | 3.4 h | 3380 ng·h/mL | 4.9 h | 15 mL/min | 4.3 L | PT (Rattus norvegicus [15]): 18.2 s; APTT (Rattus norvegicus [16]): 20.6 s; TT (Rattus norvegicus [17]): 22 min; pKi (Plasma kallikrein): 6.56; Ki [18]: 12.378 µM |
